Patent US20130224151A1, “Use of FAAH Inhibitors for Treating Abdominal, Visceral and Pelvic Pain” (UNITED STATES OF AMERICA, priority 2010, published 2013)
“Also recorded” adds a separate entry of the source.

Experiments:
Format in all cases: in vivo, rat
Female Wistar rats [1] = experiment: Basal sensitivity to colorectal distension model; conditions: 30 mg/kg by oral gavage; CRD measured 2 hrs later; 0-60 mmHg
[2] = system: Male Sprague Dawley (SD) rats; experiment: Cortagine-induced visceral hypersensitivity to colorectal distension; conditions: for antihyperalgesic effects in the cortagine model of visceral pain: summary statement referring to Example 3
Excerpt: Male Sprague Dawley (SD) rats (250-275 g, Harlan Labs, Indianapolis, Ind.) were kept under standard conditions of humidity and temperature and a 12-hour light/dark cycle (lights on 6.00 a.m.). Animals were group housed and had access to food ad libitum. Prior to the start of studies, animals were acclimatized to handling and administration of treatments (oral syringe feeding and subcutaneous injection). At the end of the experiments, animals were sacrificed by CO2 gas inhalation followed by thoracotomy or isoflurane anesthesia followed by decapitation with appropriate approved animal protocols.
On the day of the experiments, rats were injected intraperitoneally (IP) with cortagine (10 μg/kg, 0.8 ml/kg in DMSO/cremophor/isotonic saline (1:1:8 v:v:v). Cortagine, a selective corticotropin releasing factor receptor 1 (CRF1) agonist, prepared as described previously (Rivier et al. J. Med. Chem. 2007: 50:1668-1674), was stored in a powder form at −80° C. and prepared in sterile water (12.5 μg/ml) immediately before use. This dose had previously been established to show a significant increase in defecation, induction of diarrhea and increase in colonic motility, permeability and visceral pain in rats. (Larauche et al. Am. J. Physiol. Gastrointest. Liver Physiol. 2009: 297:G215-G227)
FAAH inhibitor compounds URB597 [3′-(aminocarbonyl)biphenyl-3-yl cyclohexyl carbamate], compound A and compound B were formulated as suspensions in DMSO/cremophor/isotonic saline (1:1:8 v:v:v). The concentration of the respective dosing FAAH inhibitor compound suspensions were 6 mg/ml for 30 mg/kg dose of compound A or compound B; 2 mg/ml for the 10 mg/kg dose of compound B; and 1.5 mg/ml for the 3 mg/kg dose of URB597. Compound A, compound B or vehicle treatment was administered to rats by per os (PO) route at dose-volume of 5 ml/kg. URB597 treatment was administered to rats by subcutaneous (SC) route at dose volume of 2 ml/kg. The vehicle for the PO route was DMSO/cremophor/isotonic saline (1:1:8 v:v:v). Vehicle (PO), URB597 (SC), compound A and compound B (PO) were administered to non-fasted rats, restrained by hand. The regimen of administration of URB597, compound A and compound B involved one delivery (PO or SC) performed 120 min before IP injection of cortagine.
Visceral pain was assessed using a non-invasive pressure transducer system referred to as “sensor balloon” as previously described (Larauche et al. Am. J. Physiol. Gastrointest. Liver Physiol. 2009: 297:G215-G227; Ness et al. Brain Res. 1988: 450:153-169). Briefly, in adult non-fasted SD rats, a 4-5 cm “sensor balloon” lubricated with surgical lubricant (Surgilube, Fougera, Melville) was inserted intra-anally under brief isoflurane anesthesia. The “sensor balloon” was positioned such that its distal end was 1 cm proximal to the anal verge and secured in place by tapping the balloon catheter to the tail. Rats were placed individually in Boolman's cage and allowed to recover from anesthesia and habituation. The colorectal procedure was performed using the Distender Series Ilir dual barostat (G&J Electronics Inc, Toronto, Ontario). The CRD protocol consisted of 2 CRD at 60 mmHg to unfold the balloon followed by 2 sets of CRD at 10, 20, 40 and 60 mmHg, 20 s duration, 4-min inter-stimulus interval. The intra-luminal colonic pressure (ICP) was recorded for 20 s before, during and after termination of CRD. […]

Female Wistar rats [3] = experiment: Partial restraint stress-induced hyperalgesia model; conditions: 30 mg/kg orally, 1 hr 15 min into 2 hr PRS; CRD 2 hrs later; 45 and 60 mmHg
Description: Female Wistar rats surgically prepared for electromyography as described in Example 1 were used to evaluate the effects of the FAAH inhibitors (a) compound A or (b) compound B, on colorectal sensitivity and compliance after a 2 hour partial restraint stress session.
Partial restraint stress (PRS), a relatively mild stress, was induced as previously described (Morteau et al. Dig. Dis. Sci. 1994: 39:1239-48; “Guanylate cyclase C-mediated antinociceptive effects of linaclotide in rodent models of visceral pain”, Eutamene H, Bradesi S, Larauche M, Theodorou V, Beaufrand C, Ohning G, Fioramonti J, Cohen M, Bryant A P, Kurtz C, Currie M G, Mayer E A, Bueno L, Neurogastroenterology and motility —2010 Volume: 22 p. 312-322; “Stress-induced changes in intestinal transit in the rat: a model for irritable bowel syndrome”, Williams C L, Villar R G, Peterson J M, Burks T F, Gastroenterology—1988 p. 611-21). Female rats were lightly anesthetized with diethyl ether and their shoulders, upper forelimbs and thoracic trunk were wrapped in a confining harness of paper tape to restrict, but not prevent body movements. Control sham-stress animals were anesthetized but not wrapped. […]
Rats were treated orally with compound A (30 mg/kg in DMSO/cremophor/isotonic saline (1:1:8 v:v:v), n=8), or vehicle only (DMSO/cremophor/isotonic saline (1:1:8 v:v:v), 1 mL, n=9) with or without 2 hour PRS sessions. The number of abdominal contractions was recorded by electromyography per 5-minute period (y axis) for each distension pressure of 0 mmHg, 15 mmHg, 30 mmHg, 45 mmHg and 60 mmHg (x axis); the ? symbols represent the results for the control+vehicle group (n=9); the symbols ? represent the results for the stress+vehicle group (n=9); the symbols ? represent the results for the stress+compound A group (n=8). Data are mean values with SEM.
Rats were treated orally with compound B (30 mg/kg in DMSO/cremophor/isotonic saline (1:1:8 v:v:v), n=9), or vehicle only (DMSO/cremophor/isotonic saline (1:1:8 v:v:v), 1 mL, n=9) with or without 2 hour PRS sessions. The number of abdominal contractions was recorded by electromyography per 5-minute period (y axis) for each distension pressure of 0 mmHg, 15 mmHg, 30 mmHg, 45 mmHg and 60 mmHg (x axis); the symbols ? represent the results for the control+vehicle group (n=9); the symbols ? represent the results for the stress+vehicle group (n=9); and the symbols ? represent the results for the stress+compound B group (n=9). Data are mean values with SEM.
The effect of FAAH inhibitor URB597 was tested at 3 mg/kg and 10 mg/kg in the PRS model of visceral hyperalgesia essentially as described in Examples 1 and 2. URB597 was formulated as a suspension in vehicle [DMSO/cremophor/isotonic saline (1:1:8 v:v:v)]. […]

[4] = 30 mg/kg PO 2 h before cortagine
[5] = 30 mg/kg PO 2 h before cortagine 10 μg/kg IP, 40 and 60 mmHg, did not reach statistical significance
[6] = 30 mg/kg PO 2 h before cortagine, n=11
[7] = 10 mg/kg PO 2 h before cortagine, normalized to baseline VMR at 60 mmHg

Row | SMILES | basal sensitivity to colorectal distension (number of abdominal contractions per 5-minute period) (Female Wistar rats [1]) | rats with increased VMR between 0 and 50% at 60 mmHg [2, 4] [%] | rats with increased VMR between 51 and 100% at 60 mmHg [2, 4] [%] | rats with increased VMR over 101% at 60 mmHg [2, 4] [%] | effect on cortagine-induced visceral hypersensitivity to CRD [2, 5] | rats presenting an increased VMR over baseline (% hypersensitive rats) at 60 mmHg [2, 6] [%] | antihyperalgesic effects in the cortagine model of visceral pain [2] | abdominal contractions versus stress+vehicle control (Female Wistar rats [3]) | % hypersensitive rats at 40 mmHg ([2]; 10 mg/kg PO 2 h before cortagine) [%] | effect on cortagine-induced visceral hypersensitivity to CRD ([2]; 10 mg/kg PO 2 h before cortagine 10 μg/kg IP) | rats presenting a decrease in VMR compared to baseline at 60 mmHg ([2]; 10 mg/kg PO 2 h before cortagine, n=11) [%] | rats presenting an increased VMR over baseline (% hypersensitive rats) at 60 mmHg ([2]; 10 mg/kg PO 2 h before cortagine, n=11, all increases between 0 and 50%) [%] | VMR to CRD at 40 mmHg [2, 7] [%] | VMR to CRD at 60 mmHg [2, 7] [%]
1 | COc1ccc2c(c1)c(C(=O)C(=O)Nc1cccc(Cl)c1)c(C)n2Cc1ccc(Cl)cc1 [compound A, 2-(1-(4-chlorobenzyl)-5-methoxy-2-methyl-1H-indol-3-yl)-N-(3-chlorophenyl)-2-oxoacetamide] | neither compound A nor compound B alters basal sensitivity | 18 | 27 | 9 | trend to decrease the cortagine-induced visceral hypersensitivity; also recorded: trend to reduce cortagine-induced visceral hypersensitivity | 55 | exhibit antihyperalgesic effects | non-significant trend towards attenuation of abdominal contractions; also recorded: exhibit antihyperalgesic effects |  |  |  |  |  | 
2 | COc1cc(NC(=O)C(=O)c2c(C)n(Cc3ccc(Cl)cc3)c3ccc(C)cc23)ccn1 [compound B, 2-(1-(4-chlorobenzyl)-2,5-dimethyl-1H-indol-3-yl)-N-(2-methoxypyridin-4-yl)-2-oxoacetamide] | neither compound A nor compound B alters basal sensitivity | 45 |  | 9 | trend to dampen the development of the visceral hypersensitivity; also recorded: trend to reduce cortagine-induced visceral hypersensitivity | 55 | exhibit antihyperalgesic effects | significantly reduced abdominal contractions; also recorded: exhibit antihyperalgesic effects | 36 | abolished the visceral hypersensitivity; also recorded: prevented the visceral hypersensitivity | 64 | 36 | 84.74±13.54 | 87.75±10.96
